Data as given in patent US6884589B2, “Model for myeloid cell growth, differentiation and disease” (Regents of the University of California, priority 2000, dated 2005).

Experiments:
Type in all cases: cell-based, murine
Details in all cases: 10 μM atRA for 4 days
[1] = system: PML/RARα ECoM-G derivatives; assay: atRA treatment of ECoM-G clones arrested in differentiation by PML/RARα
Method: (§1) Retroviral infection of ECoM-G cells with heterologous oncoproteins. Helper-free retrovirus was generated for wild-type E2a-Pbx1, Hoxa7, Hoxa9, Nup98/HoxA9, Hoxb8, AML1/ETO, PML/RARα and PLZF/RARα constructs cloned into the multiple cloning site of the MSCVneo and MSCVpac retroviral vectors. ECoM-G cells (250,000) from 3 different clones were transduced by spinoculation (as described above) and selected 5 days in G418 (1 mg/ml) or puromycin (1 μg/ml). The cells were washed and plated in media without estrogen. Only those cells that were capable of continued and indefinite proliferation in the absence of estrogen were expanded to generate RNA for Northern analysis.
Analysis of differentiation arrest induced by heterologous oncoproteins in E2a-Pbx1-ER expressing cells. The ECoM cells provide a system in which to dissect the mechanisms of action of oncogenes. Heterologous oncoproteins were introduced into ECoM-G clones by retroviral infection. Expression was verified by immunoblot assay and cells were assayed for the ability to re-establish differentiation arrest following estrogen withdrawal. AML1/ETO, PML/RARα, Hoxa9, Hoxb8 and wild type E2a-Pbx1 prevented granulocytic differentiation of specific clones permitting their continued and indefinite proliferation in the presence of GM-CSF. […]

parental ECoM-G cells = assay: atRA treatment of parental ECoM-G cells
[2] = system: PLZF/RARα ECoM-G derivatives; assay: atRA treatment of ECoM-G clones arrested in differentiation by PLZF/RARα
Method: as §1
Analysis of differentiation arrest induced by heterologous oncoproteins in E2a-Pbx1-ER expressing cells. The ECoM cells provide a system in which to dissect the mechanisms of action of oncogenes. Heterologous oncoproteins were introduced into ECoM-G clones by retroviral infection.

CC1=C(/C=C/C(C)=C/C=C/C(C)=C/C(=O)O)C(C)(C)CCC1 [atRA, all-trans-RA]
response to atRA (proliferation, differentiation) [1]: stopped proliferating and underwent quantitative granulocytic differentiation
response to atRA (parental ECoM-G cells): completely unresponsive
response to atRA (proliferation, differentiation) [2]: stopped proliferating and underwent quantitative granulocytic differentiation
